# Reference: US20260250325A1, “Antiviral Polypeptide Membrane Fusion Inhibitor, and Preparation Method and Application Thereof” (priority 2025, published 2026)
# Where a SMILES comes first, the peptide text is derived from it. The star is where a group is joined. Succinyl(4-O-cholesteryl) = CC(C)CCC[C@@H](C)[C@H]1CC[C@H]2[C@@H]3CC=C4C[C@@H](OC(=O)CCC(=O)*)CC[C@]4(C)[C@H]3CC[C@]12C; X1 = CC(C)CCCC(C)C1CCC2C3CC=C4CC(OC(=O)CCC(=O)*)CCC4(C)C3CCC12C
# Tested on: RSV A long virus strain
# Type: cell-based
# Conditions: RSV A long virus strain, HEp-2 cells, plaque reduction, 1 day; read-out: IC50
# Procedure, shortened: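 HEp-2 cells (30000/well) infected with 100 PFU virus premixed 1 h with compound (8 concentrations, duplicate); after 2 h adsorption, cultured 1 day at 37 °C under 0.8% CMC overlay with compound. Plaques immunostained (RSV antibody, TrueBlue) and counted; IC50 and CC50 by non-linear fitting of % inhibition versus virus and cell controls.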
row,Compound,IC50 [nM]
1,CC[C@H](C)[C@H](NC(=O)[C@H](CCCCN)NC(=O)[C@H](CCC(=O)O)NC(=O)[C@H](CC(C)C)NC(=O)[C@H](CO)NC(=O)[C@H](CCC(N)=O)NC(=O)[C@H](CC(N)=O)NC(=O)[C@@H](NC(=O)[C@H](CCCCN)NC(=O)[C@H](CCC(=O)O)NC(=O)[C@H](CC(N)=O)NC(=O)[C@@H](NC(=O)[C@H](CCC(N)=O)NC(=O)[C@H](CO)NC(=O)[C@H](C)NC(=O)[C@H](CC(=O)O)NC(=O)[C@H](Cc1ccccc1)NC(=O)[C@@H](NC(=O)[C@H](CC(C)C)NC(=O)[C@H](CCC(=O)O)NC(=O)[C@H](CC(=O)O)NC(=O)[C@H](Cc1ccc(O)cc1)NC(C)=O)C(C)C)C(C)C)[C@@H](C)CC)C(=O)N[C@@H](CCCNC(=N)N)C(=O)N[C@@H](CCCCN)C(=O)N[C@@H](CO)C(=O)N[C@@H](CC(=O)O)C(=O)N[C@@H](CCC(=O)O)C(=O)N[C@@H](CC(C)C)C(=O)N[C@@H](CC(C)C)C(=O)N[C@@H](Cc1c[nH]cn1)C(=O)N[C@@H](CC(N)=O)C(=O)N[C@H](C(=O)N[C@@H](CCC(=O)O)C(=O)N[C@@H](C)C(=O)N[C@@H](C)C(=O)N[C@@H](C)C(=O)N[C@@H](CCCCN)C(=O)N[C@@H](CCCCNC(=O)CCC(=O)O[C@H]1CC[C@@]2(C)C(=CC[C@H]3[C@@H]4CC[C@H]([C@H](C)CCCC(C)C)[C@@]4(C)CC[C@@H]32)C1)C(N)=O)C(C)C [Compound 30] (Ac-YDELVFDASQVNEKINQSLEKIRKSDELLHNVEAAAKK(Succinyl(4-O-cholesteryl))-NH2),14.9
2,CC[C@H](C)[C@H](NC(=O)[C@H](CCCCN)NC(=O)[C@H](CCCCN)NC(=O)[C@H](CC(C)C)NC(=O)[C@H](CO)NC(=O)[C@H](CCC(=O)O)NC(=O)[C@H](CCC(=O)O)NC(=O)[C@@H](NC(=O)[C@H](CCCCN)NC(=O)[C@H](CCCCN)NC(=O)[C@H](CC(N)=O)NC(=O)[C@@H](NC(=O)[C@H](CCC(=O)O)NC(=O)[C@H](CCC(=O)O)NC(=O)[C@@H](NC(=O)[C@H](CCCCN)NC(=O)[C@H](CCCCN)NC(=O)[C@H](CC(=O)O)NC(=O)[C@H](Cc1ccccc1)NC(=O)[C@H](CCC(=O)O)NC(=O)[C@H](CC(=O)O)NC(C)=O)[C@@H](C)CC)C(C)C)[C@@H](C)CC)C(=O)N[C@@H](CCC(=O)O)C(=O)N[C@@H](CCC(=O)O)C(=O)N[C@@H](CO)C(=O)N[C@@H](CC(=O)O)C(=O)N[C@@H](CCCCN)C(=O)N[C@@H](CCCCN)C(=O)N[C@@H](CC(C)C)C(=O)N[C@@H](CCC(=O)O)C(=O)N[C@@H](CCC(=O)O)C(=O)N[C@H](C(=O)N[C@@H](CCC(=O)O)C(=O)N[C@@H](C)C(=O)N[C@@H](C)C(=O)N[C@@H](C)C(=O)N[C@@H](CCCCN)C(=O)N[C@@H](CCCCNC(=O)CCC(=O)OC1CCC2(C)C(=CCC3C2CCC2(C)C(C(C)CCCC(C)C)CCC32)C1)C(N)=O)C(C)C (some centres unmarked) [Compound 21] (Ac-DEFDKKIEEVNKKIEESLKKIEESDKKLEEVEAAAKK(X1)-NH2),14.6
3,CC[C@H](C)[C@H](NC(=O)[C@H](CO)NC(=O)[C@H](C)NC(=O)[C@H](CC(=O)O)NC(=O)[C@H](Cc1ccccc1)NC(=O)[C@H](CCC(=O)O)NC(=O)[C@H](CC(=O)O)NC(=O)[C@H](Cc1c[nH]c2ccccc12)NC(C)=O)C(=O)N[C@@H](CO)C(=O)N[C@@H](CCC(N)=O)C(=O)N[C@H](C(=O)N[C@@H](CC(N)=O)C(=O)N[C@@H](CCC(=O)O)C(=O)N[C@@H](CCCCN)C(=O)N[C@H](C(=O)N[C@@H](CC(N)=O)C(=O)N[C@@H](CCC(N)=O)C(=O)N[C@@H](CO)C(=O)N[C@@H](CC(C)C)C(=O)N[C@@H](CCC(=O)O)C(=O)N[C@@H](CCC(=O)O)C(=O)N[C@H](C(=O)N[C@@H](CCCNC(=N)N)C(=O)N[C@@H](CCCCN)C(=O)N[C@@H](CO)C(=O)N[C@@H](CC(=O)O)C(=O)N[C@@H](CCC(=O)O)C(=O)N[C@@H](CC(C)C)C(=O)N[C@@H](CC(C)C)C(=O)N[C@@H](Cc1c[nH]cn1)C(=O)N[C@@H](CC(N)=O)C(=O)N[C@@H](CCC(=O)O)C(=O)N[C@@H](C)C(=O)N[C@@H](C)C(=O)N[C@@H](C)C(=O)N[C@@H](CCCCN)C(=O)N[C@@H](CCCCNC(=O)CCC(=O)O[C@H]1CC[C@@]2(C)C(=CC[C@H]3[C@@H]4CC[C@H]([C@H](C)CCCC(C)C)[C@@]4(C)CC[C@@H]32)C1)C(N)=O)[C@@H](C)CC)[C@@H](C)CC)C(C)C [Compound 45] (Ac-WDEFDASISQVNEKINQSLEEIRKSDELLHNEAAAKK(Succinyl(4-O-cholesteryl))-NH2),12.2
4,CC[C@H](C)[C@H](NC(=O)[C@H](CCCCN)NC(=O)[C@H](CCCCN)NC(=O)[C@H](CC(C)C)NC(=O)[C@H](CO)NC(=O)[C@H](CCC(N)=O)NC(=O)[C@H](CC(N)=O)NC(=O)[C@@H](NC(=O)[C@H](CCCCN)NC(=O)[C@H](CCCCN)NC(=O)[C@H](CC(=O)O)NC(=O)[C@H](Cc1ccccc1)NC(=O)[C@H](CCC(=O)O)NC(=O)[C@@H](NC(=O)[C@H](CCCCN)NC(=O)[C@H](CCCCN)NC(=O)[C@H](CC(N)=O)NC(=O)[C@@H](NC(=O)[C@H](CC(C)C)NC(=O)[C@H](CCC(=O)O)NC(=O)[C@H](CC(=O)O)NC(=O)[C@H](CO)NC(C)=O)C(C)C)[C@@H](C)CC)[C@@H](C)CC)C(=O)N[C@@H](CCC(=O)O)C(=O)N[C@@H](CCC(=O)O)C(=O)N[C@@H](CO)C(=O)N[C@@H](CC(=O)O)C(=O)N[C@@H](CCCCN)C(=O)N[C@@H](CCCCN)C(=O)N[C@@H](CCCCN)C(=O)N[C@@H](CC(C)C)C(=O)N[C@@H](CCC(=O)O)C(=O)N[C@@H](C)C(=O)N[C@@H](C)C(=O)N[C@@H](C)C(=O)N[C@@H](CCCCN)C(=O)N[C@@H](CCCCN)C(N)=O [Compound 51] (Ac-SDELVNKKIEFDKKINQSLKKIEESDKKKLEAAAKK-NH2),9.9
5,CC[C@H](C)[C@H](NC(=O)[C@H](CCCCN)NC(=O)[C@H](CCCCN)NC(=O)[C@H](CC(C)C)NC(=O)[C@H](CO)NC(=O)[C@H](CCC(=O)O)NC(=O)[C@H](CCC(=O)O)NC(=O)[C@@H](NC(=O)[C@H](CCCCN)NC(=O)[C@H](CCCCN)NC(=O)[C@H](CC(N)=O)NC(=O)[C@@H](NC(=O)[C@H](CCC(=O)O)NC(=O)[C@H](CCC(=O)O)NC(=O)[C@@H](NC(=O)[C@H](CCCCN)NC(=O)[C@H](CCCCN)NC(=O)[C@H](CC(=O)O)NC(=O)[C@H](Cc1ccccc1)NC(=O)[C@H](CCC(=O)O)NC(=O)[C@H](CC(=O)O)NC(=O)[C@H](Cc1c[nH]c2ccccc12)NC(C)=O)[C@@H](C)CC)C(C)C)[C@@H](C)CC)C(=O)N[C@@H](CCC(=O)O)C(=O)N[C@@H](CCC(=O)O)C(=O)N[C@@H](CO)C(=O)N[C@@H](CC(=O)O)C(=O)N[C@@H](CCCCN)C(=O)N[C@@H](CCCCN)C(=O)N[C@@H](CC(C)C)C(=O)N[C@@H](CCC(=O)O)C(=O)N[C@@H](CCC(=O)O)C(=O)N[C@H](C(=O)N[C@@H](CC(N)=O)C(=O)N[C@@H](CCC(=O)O)C(=O)N[C@@H](C)C(=O)N[C@@H](C)C(=O)N[C@@H](C)C(=O)N[C@@H](CCCCN)C(=O)N[C@@H](CCCCNC(=O)CCC(=O)O[C@H]1CC[C@@]2(C)C(=CC[C@H]3[C@@H]4CC[C@H]([C@H](C)CCCC(C)C)[C@@]4(C)CC[C@@H]32)C1)C(N)=O)C(C)C [Compound 41] (Ac-WDEFDKKIEEVNKKIEESLKKIEESDKKLEEVNEAAAKK(Succinyl(4-O-cholesteryl))-NH2),14.8
6,CC[C@H](C)[C@H](NC(=O)[C@H](CCCCN)NC(=O)[C@H](CCC(=O)O)NC(=O)[C@H](CC(C)C)NC(=O)[C@H](CO)NC(=O)[C@H](CCC(N)=O)NC(=O)[C@H](CC(N)=O)NC(=O)[C@@H](NC(=O)[C@H](CCCCN)NC(=O)[C@H](CCC(=O)O)NC(=O)[C@H](CC(N)=O)NC(=O)[C@@H](NC(=O)[C@H](CCC(N)=O)NC(=O)[C@H](CO)NC(=O)[C@H](C)NC(=O)[C@H](CC(=O)O)NC(=O)[C@H](Cc1ccccc1)NC(=O)[C@@H](NC(=O)[C@H](CC(C)C)NC(=O)[C@H](CCC(=O)O)NC(=O)[C@H](CC(=O)O)NC(=O)[C@H](Cc1ccc(O)cc1)NC(C)=O)C(C)C)C(C)C)[C@@H](C)CC)C(=O)N[C@@H](CCCNC(=N)N)C(=O)N[C@@H](CCCCN)C(=O)N[C@@H](CO)C(=O)N[C@@H](CC(=O)O)C(=O)N[C@@H](CCC(=O)O)C(=O)N[C@@H](CC(C)C)C(=O)N[C@@H](CC(C)C)C(=O)N[C@@H](Cc1c[nH]cn1)C(=O)N[C@@H](CC(N)=O)C(=O)N[C@H](C(=O)NCC(=O)N[C@@H](CO)C(=O)NCC(=O)N[C@@H](CO)C(=O)NCC(=O)N[C@@H](CCCCNC(=O)CCC(=O)O[C@H]1CC[C@@]2(C)C(=CC[C@H]3[C@@H]4CC[C@H]([C@H](C)CCCC(C)C)[C@@]4(C)CC[C@@H]32)C1)C(N)=O)C(C)C [Compound 25] (Ac-YDELVFDASQVNEKINQSLEKIRKSDELLHNVGSGSGK(Succinyl(4-O-cholesteryl))-NH2),28.7
7,Ac-LVKKIDEFDASISQVNEKINQSLEEIRKSDELLHNVGSGSGK(Succinyl(4-O-cholesteryl))-NH2 [Compound 29],19.3
8,CC[C@H](C)[C@H](NC(=O)[C@H](CCCCN)NC(=O)[C@H](CCCCN)NC(=O)[C@H](CC(C)C)NC(=O)[C@H](CO)NC(=O)[C@H](CCC(=O)O)NC(=O)[C@H](CCC(=O)O)NC(=O)[C@@H](NC(=O)[C@H](CCCCN)NC(=O)[C@H](CCCCN)NC(=O)[C@H](CC(N)=O)NC(=O)[C@@H](NC(=O)[C@H](CCC(=O)O)NC(=O)[C@H](CCC(=O)O)NC(=O)[C@@H](NC(=O)[C@H](CCCCN)NC(=O)[C@H](CCCCN)NC(=O)[C@H](CCCCN)NC(=O)[C@H](CC(=O)O)NC(=O)[C@H](Cc1ccccc1)NC(=O)[C@H](CCC(=O)O)NC(=O)[C@H](CC(=O)O)NC(C)=O)[C@@H](C)CC)C(C)C)[C@@H](C)CC)C(=O)N[C@@H](CCC(=O)O)C(=O)N[C@@H](CCC(=O)O)C(=O)N[C@@H](CO)C(=O)N[C@@H](CC(=O)O)C(=O)N[C@@H](CCCCN)C(=O)N[C@@H](CCCCN)C(=O)N[C@@H](CC(C)C)C(=O)N[C@@H](CCC(=O)O)C(=O)N[C@@H](CCC(=O)O)C(=O)N[C@H](C(=O)NCC(=O)N[C@@H](CO)C(=O)NCC(=O)N[C@@H](CO)C(=O)NCC(=O)N[C@@H](CCCCNC(=O)CCC(=O)O[C@H]1CC[C@@]2(C)C(=CC[C@H]3[C@@H]4CC[C@H]([C@H](C)CCCC(C)C)[C@@]4(C)CC[C@@H]32)C1)C(N)=O)C(C)C [Compound 15] (Ac-DEFDKKKIEEVNKKIEESLKKIEESDKKLEEVGSGSGK(Succinyl(4-O-cholesteryl))-NH2),10.4
